Results published in patent publication US20110313041A1 (priority 2008, published 2011).
Where two headings read alike, the source gives them in different places.

Columns and labels:
[1] = system: smooth muscles of lachrymal gland, bladder, stomach, intestine; assay: response experiment to sublingual/buccal Panthenol under Acetylcholinersterase-inhibition; format: in vivo, human; settings: 2 g Panthenol Tbl. sublingual/buccal
Experimental: Immediately afterwards, response experiment to sublingual/buccal applied 2 g-Panthenol Tbl. was executed. […] After its decay and continuation of the breakfast with bread the same reactions in bladder, womb and bowel 10 minutes later repeated with time shortened duration.
Acetylcholine, the natural excitation transmitter from the nerve to the muscle effects striped muscles in concentrations of 10^−6 g/l, smooth muscles already in concentrations of 10^−16 g/l. (4) These “adverse” reactions are contractions of smooth muscles of lachrymal gland, bladder, stomach, intestine, caused by there suddenly synthesized acetylcholine, which exceeds the Response threshold that is 10^−16 grams per liter of acetylcholine in smooth muscles: • a) within 10 minutes of ingestion into the stomach and after the end of reaction; • b) within 10 minutes of sublingual/buccal absorption of 2000 mg Tbl Panthenol, while Acetylcholinersterase-inhibition amongst 140 mg Neostgminbromid is existing. […] (13)

[2] = cited from earlier work; for side effects: Alzheimer's disease patients; for condition of Alzheimer's disease patients: after administration
[3] = treatment of weakness in metabolic activity with pantothenic acid-CoA; format: in vivo, human; settings: intake in a large amount
Source text: The invention is based of the surprising finding of Mr.
Muscle weakness and pain, weakness, respiratory weakness, mental exhaustion, and gastric problems have mainly been treated with pantothenic acid-CoA,-buk, vitamins and amino acids.
After improvement and discontinuation of the treatment the symptoms returned after a short interval. Ultimately, the problems could be reduced and neutralised through re-treatment. Only with the normalization of the function of the digestive tract, the absorption of pantothenic acid-CoA from food in the stomach could be reproduced, and the treatment was dispensable.
Disturbed gastric functions and/or depletion of mitochondrial reserves in Myasthenia, autism, chronic fatigue syndrome appears in the fading of the yellowing of the urine. […] The current optimum, the proof of the success of the pantothenic acid-CoA treatment is reached when harmless acetylcholine surplus reactions responses in the bladder, stomach or intestines occur.

ACH Esterase = biological target: T1, ACH Esterase (Homo sapiens, UniProt P22303); settings: 30 mg PB, soldiers, cited from earlier work
T1 construct: endogenous in cells
T1 sequence (P22303 32-614): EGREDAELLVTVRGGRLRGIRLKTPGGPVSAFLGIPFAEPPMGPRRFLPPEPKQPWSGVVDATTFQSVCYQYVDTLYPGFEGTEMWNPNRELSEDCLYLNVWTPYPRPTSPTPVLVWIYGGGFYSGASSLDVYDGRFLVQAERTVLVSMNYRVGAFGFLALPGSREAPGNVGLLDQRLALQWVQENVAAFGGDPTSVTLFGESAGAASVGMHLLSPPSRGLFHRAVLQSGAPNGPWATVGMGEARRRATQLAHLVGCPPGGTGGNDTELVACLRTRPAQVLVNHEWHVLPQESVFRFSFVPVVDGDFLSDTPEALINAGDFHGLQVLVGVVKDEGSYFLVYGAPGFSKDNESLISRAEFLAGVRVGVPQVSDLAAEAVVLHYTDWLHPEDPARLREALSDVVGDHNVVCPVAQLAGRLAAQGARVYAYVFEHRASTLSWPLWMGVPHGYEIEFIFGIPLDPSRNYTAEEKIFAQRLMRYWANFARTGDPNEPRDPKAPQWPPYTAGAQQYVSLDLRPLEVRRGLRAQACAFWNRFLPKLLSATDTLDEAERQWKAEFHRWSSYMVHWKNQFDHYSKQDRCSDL

Question: For `CC(C)(CO)[C@@H](O)C(=O)NCCCO` [Panthenol], which “reaction to first application of Panthenol” value ([1]; first application, under 140 mg Neostigminbromid) is on record?
Answer: Its value is “the same adverse reaction started with a similar duration”.

Question: And the “reaction to anew application of Panthenol” value ([1]; second application after continued breakfast)?
Answer: Its value is “the same adverse reaction started, but delayed and lasted for less”.

Question: Which side effects [2] does the source give for `Nc1c2c(nc3ccccc13)CCCC2` [Tacrine] here?
Answer: Its side effects is “nausea, vomiting, diarrhea and cramps”.

Question: What about the “condition of Alzheimer's disease patients” value [2] of the same compound?
Answer: The value was “improvement of their condition”.

Question: For pantothenic acid-CoA, which “effect on symptoms caused by weakness in metabolic activity” value [3] is on record?
Answer: Its value is “beneficial effect”.

Question: For `CCN(C)C(=O)Oc1cccc([C@H](C)N(C)C)c1` [Rivastigmin], which side effects [2] is on record?
Answer: Its side effects is “nausea, vomiting, diarrhea and cramps”.

Question: And the “condition of Alzheimer's disease patients” value [2]?
Answer: The value was “improvement of their condition”.

Question: Which adverse cholinergic reactions (ACH Esterase) does the source give for `CN(C)C(=O)Oc1ccc[n+](C)c1` [Pyridostigminbromid] here?
Answer: Its adverse cholinergic reactions is “nausea, vomiting, stomach cramps, diarrhea, urination, increased salivation, sweating and muscle spasm”.

Question: And the adverse cholinergic reactions (ACH Esterase; listed as pyridostigmine bromide)?
Answer: Its adverse cholinergic reactions is “nausea, vomiting, abdominal Cramps, diarrhea, increased salivation, sweating, muscle Cramps”.

Question: For `CC(C)(CO)[C@@H](O)C(=O)NCCC(=O)O` [pantothenic acid, Pantothenic acid], which “effect on symptoms caused by weakness in metabolic activity” value [3] is on record?
Answer: The value was “beneficial effect”.
